Laboratory results reported in US8334286B2, “Substituted pyrrolo[1,2-A] pyrazines, compositions containing these, processes of making these, and uses thereof” (Neurotune AG, priority 2008, dated 2012).

Legend:
[1] = system: paclitaxel-induced hyperalgesia; assay: Paclitaxel-induced hyperalgesia in the rat (paw-pressure test); assay type: in vivo; conditions: PCT-treated rats, 3 mg/kg i.v., mean ± S.E.M.; for Mechanical threshold (g), After Treatment 15 min: 15 min after treatment; for Mechanical threshold (g), After Treatment 30 min: 30 min after treatment; for Mechanical threshold (g), After Treatment 45 min: 45 min after treatment
Experimental: In all methods, paw mechanical sensitivity was determined using either the paw pressure test or the incapacitance test. The paw pressure test utilizes a Randall & Selitto apparatus, exerting a force that increases at constant rate (32 g/s). The stimulus at which rats withdrawn the paw was evaluated before and at different times after treatment. Results represent the mean of mechanical thresholds expressed as grams. To avoid any possible damage to the animal paw the maximum applied force was fixed at 240 g. Peripheral neuropathy is induced by repeated administration of vincristine, paclitaxel or oxaliplatin to adult male Sprague-Dawley rats (150-200 g, supplier Harlan). The following protocols were used respectively: • Vincristine: the drug was injected by intravenous route at the dose of 150 μg/kg. The treatment was performed every 2 days, for 5 times, until a cumulative dose of 750 μg/kg was reached. Paw pressure test was performed 4 days after the last injection (Marchand F. et al. 2003, Brain Res. 980:117-120). • Paclitaxel: paclitaxel (PCT) neuropathy was induced by intraperitoneal administration of 0.5 mg/kg once a day, on days 1, 3, 5 and 8. Cumulative paclitaxel dose was 2 mg/kg. The pharmacological test was performed 14-18 days after the last paclitaxel injection (Polomano R. C. et al. 2001, Pain 94:293-304). • Oxaliplatin: 2.4 mg/kg were injected by intraperitoneal route for 5 consecutive days followed by 2 days suspension (one cicle). A total of 3 cycles was performed, reaching a cumulative dose of 36 mg/kg (Cavaletti G. 2001, Eur. J. Cancer 37:2457-2463). The test was performed 48 h after the last oxaliplatin injection. 2. Osteoarthritic Pain

[2] = system: MIA-induced hyperalgesia; assay: MIA-induced hyperalgesia in the rat (paw-pressure test), osteoarthritic pain; assay type: in vivo; conditions: MIA-treated rats, mean ± S.E.M.; for Mechanical threshold (g), After Treatment 15 min / Mechanical threshold (g), After Treatment 30 min / Mechanical threshold (g), After Treatment 45 min: 3 mg/kg i.v.; for Mechanical threshold (g), After Treatment 15 min: 15 min after treatment; for Mechanical threshold (g), After Treatment 30 min: 30 min after treatment; for Mechanical threshold (g), After Treatment 45 min: 45 min after treatment; for Mechanical threshold (g), Before Treatment basal: group 3 mg/kg i.v.
Experimental: In all methods, paw mechanical sensitivity was determined using either the paw pressure test or the incapacitance test. The paw pressure test utilizes a Randall & Selitto apparatus, exerting a force that increases at constant rate (32 g/s). The stimulus at which rats withdrawn the paw was evaluated before and at different times after treatment. Results represent the mean of mechanical thresholds expressed as grams. To avoid any possible damage to the animal paw the maximum applied force was fixed at 240 g. Osteoarthritis was induced by a single administration of 2 mg (in a volume of 25 μl) of monosodium iodoacetate (MIA) into the left knee joint of anaesthetized rats (male adult Sprague Dawley rats, 150-200 g, supplier Harlan) (Fernihough J. 2004, Pain 112:83-93). This treatment induces the progressive degeneration of the joint and the development of hyperalgesia, mimicking at the histological and behavioral levels what observed in humans. Pharmacological test was performed 7 days after treatment.

[3] = system: MIA-induced hyperalgesia; assay: MIA-induced hyperalgesia in the rat (incapacitance test), osteoarthritic pain; assay type: in vivo; conditions: MIA-treated rats, grams of the right paw, mean ± S.E.M.
Experimental: In all methods, paw mechanical sensitivity was determined using either the paw pressure test or the incapacitance test. […] Osteoarthritis was induced by a single administration of 2 mg (in a volume of 25 μl) of monosodium iodoacetate (MIA) into the left knee joint of anaesthetized rats (male adult Sprague Dawley rats, 150-200 g, supplier Harlan) (Fernihough J. 2004, Pain 112:83-93). This treatment induces the progressive degeneration of the joint and the development of hyperalgesia, mimicking at the histological and behavioral levels what observed in humans. Pharmacological test was performed 7 days after treatment.

[4] = 3 mg/kg i.v., 15 min after treatment
[5] = 3 mg/kg i.v., 30 min after treatment
[6] = 3 mg/kg i.v., 45 min after treatment
[7] = before treatment (basal), group 3 mg/kg i.v.

Compound | Mechanical threshold (g), After Treatment 15 min [1] [g] | Mechanical threshold (g), After Treatment 30 min [1] [g] | Mechanical threshold (g), After Treatment 45 min [1] [g] | Mechanical threshold (g), After Treatment 15 min [2] [g] | Mechanical threshold (g), After Treatment 30 min [2] [g] | Mechanical threshold (g), After Treatment 45 min [2] [g] | Mechanical threshold (g), Before Treatment basal [2] [g] | Weight borne on right hind paw [3, 4] [g] | Weight borne on right hind paw [3, 5] [g] | Weight borne on right hind paw [3, 6] [g] | Weight borne on right hind paw [3, 7] [g] | melting point [°C]
O=C1CC[C@@H]2CN(S(=O)(=O)c3cccc(F)c3)CCN12 [Example 4, (R)-(+)2-(3-fluorophenylsulfonyl)hexahydro pyrrolo[1,2-a]pyrazin-6(7H)-one] | 51.1 ± 2.4 | 55.8 ± 2.4 | 47.3 ± 2.9 | 41.4 ± 3.1 | 53.0 ± 3.5 | 42.6 ± 3.2 | 23.1 ± 2.5 | 90.1 ± 8.2 | 96.2 ± 7.5 | 72.5 ± 7.2 | 41.4 ± 5.8 | 179 to 180
O=C1CC[C@@H]2CN(S(=O)(=O)c3ccccc3F)CCN12 [Example 3, (R)-(+)2-(2-fluorophenylsulfonyl)hexahydro pyrrolo[1,2-a]pyrazin-6(7H)-one] | 45.6 ± 3.9 | 53.3 ± 2.7 | 46.2 ± 3.3 | 61.3 ± 3.0 | 58.1 ± 3.7 | 49.2 ± 4.1 | 21.9 ± 1.9 | 106.9 ± 7.3 | 112.1 ± 8.5 | 81.8 ± 6.6 | 41.8 ± 6.0 | 136 to 137
O=C1CC[C@@H]2CN(S(=O)(=O)c3ccccc3C(F)(F)F)CCN12 [Example 8, (R)-(+)-2-(2-(trifluoromethyl)phenylsulfonyl) hexahydropyrrolo [1,2-a]pyrazin-6(7H)-one] | 42.2 ± 3.0 | 39.3 ± 3.2 | 37.5 ± 3.2 | 59.4 ± 1.6 | 63.8 ± 2.6 | 50.2 ± 3.7 | 22.6 ± 2.0 | 119.0 ± 7.5 | 113.5 ± 6.6 | 72.9 ± 6.3 | 40.4 ± 8.2 | 157 to 158
